Each structure is given as a SMILES string.

Data set [1] concerns AR pathway. The settings on record: for AR pathway model call: maximum of agonist or antagonist AUC.
In data set [2] the target is T1, AR (Rattus norvegicus, UniProt P15207).
T1 sequence (P15207 1-902): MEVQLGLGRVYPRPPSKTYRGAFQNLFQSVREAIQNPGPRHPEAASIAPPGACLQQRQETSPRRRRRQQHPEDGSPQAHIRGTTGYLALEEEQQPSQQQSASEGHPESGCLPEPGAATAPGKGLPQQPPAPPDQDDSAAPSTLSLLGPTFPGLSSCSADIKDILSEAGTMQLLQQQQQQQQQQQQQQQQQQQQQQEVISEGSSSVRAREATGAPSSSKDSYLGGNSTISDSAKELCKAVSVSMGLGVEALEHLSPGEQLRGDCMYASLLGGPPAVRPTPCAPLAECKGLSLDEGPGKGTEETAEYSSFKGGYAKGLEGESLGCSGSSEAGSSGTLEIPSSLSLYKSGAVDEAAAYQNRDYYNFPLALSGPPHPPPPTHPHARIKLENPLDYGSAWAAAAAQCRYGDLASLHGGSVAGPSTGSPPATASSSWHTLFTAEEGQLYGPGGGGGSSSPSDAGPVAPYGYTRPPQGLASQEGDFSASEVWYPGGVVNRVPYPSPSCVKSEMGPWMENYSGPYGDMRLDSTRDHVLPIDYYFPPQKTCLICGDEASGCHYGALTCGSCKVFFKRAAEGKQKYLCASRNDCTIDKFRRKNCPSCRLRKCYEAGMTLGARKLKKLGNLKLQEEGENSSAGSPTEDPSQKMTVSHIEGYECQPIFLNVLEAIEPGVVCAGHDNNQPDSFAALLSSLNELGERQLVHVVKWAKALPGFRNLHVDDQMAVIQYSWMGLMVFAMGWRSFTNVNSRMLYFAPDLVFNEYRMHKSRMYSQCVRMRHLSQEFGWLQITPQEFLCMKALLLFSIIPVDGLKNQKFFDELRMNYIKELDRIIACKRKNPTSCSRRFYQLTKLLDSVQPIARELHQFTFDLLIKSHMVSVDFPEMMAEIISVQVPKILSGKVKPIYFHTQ
The experiment in a line: Literature review: AR transactivation assays, agonist mode. Particulars: reference classification from curated literature TA data (mean AC50).

Data set [3] deals with cytotoxicity. It is filed as cell-based. The settings on record: distance of AR assay logAC50 from median cytotoxicity logAC50; high = >3.
Data set [4] addresses T2, AR (Homo sapiens, UniProt P10275).
T2 sequence (P10275 1-920): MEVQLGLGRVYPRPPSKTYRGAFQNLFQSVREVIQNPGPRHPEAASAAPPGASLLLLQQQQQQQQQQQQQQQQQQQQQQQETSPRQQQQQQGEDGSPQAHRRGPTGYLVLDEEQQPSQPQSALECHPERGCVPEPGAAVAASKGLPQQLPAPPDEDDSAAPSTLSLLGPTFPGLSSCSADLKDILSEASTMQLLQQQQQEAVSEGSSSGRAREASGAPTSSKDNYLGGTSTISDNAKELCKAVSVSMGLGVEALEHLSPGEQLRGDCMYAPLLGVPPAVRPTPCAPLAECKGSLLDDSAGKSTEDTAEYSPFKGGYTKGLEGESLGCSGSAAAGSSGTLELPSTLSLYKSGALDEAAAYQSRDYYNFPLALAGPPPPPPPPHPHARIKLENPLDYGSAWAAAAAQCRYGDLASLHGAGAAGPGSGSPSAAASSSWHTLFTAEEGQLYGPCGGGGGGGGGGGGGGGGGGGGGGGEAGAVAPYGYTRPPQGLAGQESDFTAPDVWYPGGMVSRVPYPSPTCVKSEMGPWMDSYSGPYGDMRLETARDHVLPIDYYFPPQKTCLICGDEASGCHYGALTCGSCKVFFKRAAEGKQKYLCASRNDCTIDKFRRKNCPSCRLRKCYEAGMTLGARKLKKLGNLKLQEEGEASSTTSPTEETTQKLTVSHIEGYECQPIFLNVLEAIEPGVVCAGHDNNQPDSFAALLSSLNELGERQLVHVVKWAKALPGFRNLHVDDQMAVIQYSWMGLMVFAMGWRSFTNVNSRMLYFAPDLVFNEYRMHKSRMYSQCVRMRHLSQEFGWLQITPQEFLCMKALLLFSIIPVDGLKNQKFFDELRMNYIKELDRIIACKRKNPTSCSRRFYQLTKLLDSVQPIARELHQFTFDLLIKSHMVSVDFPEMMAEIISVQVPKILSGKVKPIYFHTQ
It is filed as cell-based. Particulars: AC50 at 10 nM vs 0.5 nM R1881, 95% confidence intervals.

As for `Oc1ccccc1-c1ccccc1` [2-phenylphenol], the “AR pathway model call” value in data set [1] is “negative (negative if the maximum was <0.001)”.

As for `C[C@]12CC[C@@H]3c4ccc(O)cc4CC[C@H]3[C@@H]1CC[C@H]2O` [17a-estradiol], the “AR pathway model AUC, Agonist (R1)” value in data set [1] is 0.67. Besides, the “AR pathway model agonist prediction against reference classification” value in data set [1] (agonist reference chemicals) was “false positive”.

For the compound `C[C@]12C=CC3=C4CCC(=O)C=C4CC[C@H]3[C@@H]1CC[C@@H]2O` [17b-trenbolone], the agonist potency category entry in data set [2] was “strong (Strong: mean AC50 ≤ 0.1 μM)”.

On to `C[C@]12CC[C@@H]3c4ccc(O)cc4C[C@@H](CCCCCCCCC[S+]([O-])CCCC(F)(F)C(F)(F)F)[C@H]3[C@@H]1CC[C@@H]2O` (stereo partly drawn) [ICI 182,780], for which the agonist potency category result in data set [2] is recorded as “negative”.

For the compound `O=c1cc(-c2ccc(O)cc2)oc2cc(O)cc(O)c12` [apigenin], the “average Z-score” value in data set [3] is recorded as “high”.

On to `CCN=C1C=CC(=C(c2ccc(N(CC)CC)cc2)c2ccc(N(CC)CC)cc2)c2ccccc21.Cl` [basic blue 7], for which the “potency shift in antagonist confirmation assay” value (“potency shift” below) in data set [4] is “flagged for a lack of a potency shift”.

For the compound `CCCCNC(=O)n1c(NC(=O)OC)nc2ccccc21` [benomyl], the agonist potency category entry in data set [2] is given as “negative”.

For `CNC(=O)Oc1cccc2ccccc12` [carbaryl], in data set [1], the “AR pathway model call” value is “negative (negative if the maximum was <0.001)”.

In the case of `COC(=O)Nc1nc2ccccc2[nH]1` [carbendazim], the agonist potency category entry in data set [2] is “negative”.

`CC1(C)[C@H](C(=O)O[C@H](C#N)c2cccc(Oc3ccccc3)c2)[C@@H]1C=C(Br)Br` [deltamethrin]: the agonist potency category entry in data set [2] is “negative”.

Take `CCOP(=S)(OCC)Oc1cc(C)nc(C(C)C)n1` [diazinon]: the “AR pathway model call” value in data set [1] was “negative (negative if the maximum was <0.001)”.

As to `N#Cc1c(Cl)cccc1Cl` [dichlobenil], in data set [1], the “AR pathway model call” value is recorded as “negative (negative if the maximum was <0.001)”.

Turning to `CC(C)(O)C(=O)Nc1ccc([N+](=O)[O-])c(C(F)(F)F)c1` [hydroxyflutamide], the “average Z-score” value in data set [3] was “high”.

For the compound `CON(C)C(=O)Nc1ccc(Cl)c(Cl)c1` [linuron], the “average Z-score” value in data set [3] is “high”.

For the compound `CC[C@H](c1ccc(O)cc1)[C@@H](CC)c1ccc(O)cc1` [meso-hexestrol], the “potency shift” value in data set [4] is “shift in the correct direction but with overlapping confidence intervals”.

On to `C[C@]1(O)CC[C@H]2[C@@H]3CCC4=CC(=O)CCC4=C3C=C[C@@]21C` [methyltrienolone (R1881), methyltrienolone], for which, in data set [2], the agonist potency category result is reported as “strong (Strong: mean AC50 ≤ 0.1 μM)”.

Consider `CCc1cccc(C)c1N(C(=O)CCl)C(C)COC` (stereo not drawn) [metolachlor], for which, in data set [1], the “AR pathway model call” value is on record as “negative (negative if the maximum was <0.001)”.

On to `CCCCC(C#N)(Cn1cncn1)c1ccc(Cl)cc1` (stereo not drawn) [myclobutanil], for which the “AR pathway model call” value in data set [1] is listed as “negative (negative if the maximum was <0.001)”.

`CC1(C)NC(=O)N(c2ccc([N+](=O)[O-])c(C(F)(F)F)c2)C1=O` [nilutamide]: in data set [3], the “average Z-score” value is “high”.

On to `CC1(C)C(C=C(Cl)Cl)C1C(=O)OCc1cccc(Oc2ccccc2)c1` (stereo not drawn) [permethrin], for which the agonist potency category entry in data set [2] is “negative”.

On to `COP(=S)(OC)SCN1C(=O)c2ccccc2C1=O` [phosmet], for which, in data set [1], the “AR pathway model call” value is given as “negative (negative if the maximum was <0.001)”.

`Oc1ccc(/C=C/c2cc(O)cc(O)c2)cc1` [resveratrol]: in data set [2], the agonist potency category entry is “negative”.

With `CC/N=c1\cc2oc3cc(NCC)c(C)cc3c(-c3ccccc3C(=O)OCC)c-2cc1C` [rhodamine 6G], the “potency shift” value in data set [4] is given as “flagged for a lack of a potency shift”.

In the case of `CC(=O)S[C@@H]1CC2=CC(=O)CC[C@]2(C)[C@H]2CC[C@@]3(C)[C@@H](CC[C@@]34CCC(=O)O4)[C@H]12` [spironolactone], in data set [3], the “average Z-score” value is given as “high”.

`CC/C(=C(\c1ccccc1)c1ccc(OCCN(C)C)cc1)c1ccccc1` [tamoxifen]: in data set [1], the “AR pathway model AUC, Agonist (R1)” value is on record as 0.0335.

As to `CC(C)=CC1C(C(=O)OCN2C(=O)C3=C(CCCC3)C2=O)C1(C)C` (stereo not drawn) [tetramethrin], the agonist potency category entry in data set [2] was “negative”.

As to `C=CC1(C)OC(=O)N(c2cc(Cl)cc(Cl)c2)C1=O` (stereo not drawn) [vinclozolin], in data set [3], the “average Z-score” value is “high”.

`C[C@H]1CCCC(=O)CCC/C=C/c2cc(O)cc(O)c2C(=O)O1` [zearalenone]: in data set [1] (antagonist reference chemicals), the “AR pathway model antagonist prediction against reference classification” value is “false negative”. In addition, the “potency shift” value in data set [4] is “active in both screens and exhibited a potency shift in the expected direction”.

The values are drawn from publication PMC5396026 (Chemical Research in Toxicology, 2016).
